# Measured values reported in patent US9650339B2, “Inhibitors of histone demethylases” (Gilead Sciences, Inc., priority 2013, dated 2017).
# What was measured:
# [1] = tested on: OPM-2 subcutaneous mouse xenograft model of multiple myeloma; test: Inhibition of tumor growth in mouse xenograft model; type: in vivo, NOD/SCID mice (Mus Musculus); conditions: QD × 4/week × 2
# Text: Briefly, NOD/SCID mice γ-irradiated with ^60Co (200 rad) (12 animals/group) were inoculated subcutaneously with 8×10^6 OPM-2 cells assisted with Matrigel. Dosing according to the table below started when tumors reached an average size of ˜100 mm^3 (day 15). Dosing continued until the average size of tumors in the vehicle group reached ˜2000 mm^3 (day 31).
# Animals were 7 weeks old female NOD/SCID mice (Mus Musculus), supplied by Beijing HFK Bio-Technology Co. Ltd. (Beijing, china). Body weight was approx. 16-23 g. Before commencement of treatment, all animals were weighed and tumor volumes were measured, and mice were assigned into groups using randomized block design based upon their tumor volumes.
# OPM-2 tumor cells were maintained in vitro in RPMI1640 medium supplemented with 20% fetal bovine serum at 37° C. in an atmosphere of 5% CO2 in air. The tumor cells were routinely subcultured twice weekly. The cells growing in an exponential growth phase were harvested and counted for tumor inoculation.
# Tumor sizes were measured three times weekly in two dimensions using a caliper, and the volume was expressed in mm^3 using the formula: V=0.5 a×b^2 where a and b were the long and short diameters of the tumor, respectively.
# KDM5B (PLU-1) = target: T1, KDM5B (PLU-1) (Homo sapiens, UniProt Q9UGL1); test: Histone lysine demethylase AlphaLISA assay, KDM5B; type: biochemical; conditions: read-out: KDM5B HDME Inhibition IC50
# T1 sequence (Q9UGL1 1-809): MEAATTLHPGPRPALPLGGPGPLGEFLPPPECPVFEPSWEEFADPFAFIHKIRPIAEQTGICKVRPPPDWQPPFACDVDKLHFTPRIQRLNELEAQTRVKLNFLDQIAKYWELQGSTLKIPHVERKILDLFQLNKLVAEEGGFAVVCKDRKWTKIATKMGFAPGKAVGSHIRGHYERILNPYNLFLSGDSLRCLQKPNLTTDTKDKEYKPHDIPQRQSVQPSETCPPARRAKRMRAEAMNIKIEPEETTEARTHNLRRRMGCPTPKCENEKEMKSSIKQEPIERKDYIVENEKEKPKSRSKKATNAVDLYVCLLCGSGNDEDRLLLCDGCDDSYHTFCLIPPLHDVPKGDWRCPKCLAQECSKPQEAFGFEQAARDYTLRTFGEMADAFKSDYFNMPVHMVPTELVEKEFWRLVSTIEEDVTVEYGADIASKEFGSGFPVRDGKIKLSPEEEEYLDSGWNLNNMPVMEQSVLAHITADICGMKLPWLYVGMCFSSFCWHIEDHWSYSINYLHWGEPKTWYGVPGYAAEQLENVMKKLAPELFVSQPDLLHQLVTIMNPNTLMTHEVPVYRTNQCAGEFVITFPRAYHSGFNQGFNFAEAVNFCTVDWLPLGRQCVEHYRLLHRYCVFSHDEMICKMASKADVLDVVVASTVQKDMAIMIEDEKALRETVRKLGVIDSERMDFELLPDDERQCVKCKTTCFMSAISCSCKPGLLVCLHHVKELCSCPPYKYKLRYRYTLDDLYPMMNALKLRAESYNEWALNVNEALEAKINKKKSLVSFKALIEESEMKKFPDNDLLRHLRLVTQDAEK
# Method: (§1) Assays are performed analogously to the protocol described by PerkinElmer (Roy et al. PerkinElmer Technical Note: AlphaLISA #12, April 2011)
# (§2) Enzymes are dissolved in enzyme buffer and incubated for 10 min before being added to 3% DMSO solutions of compounds in enzyme buffer. Incubated for another 10 minutes, before substrate solution is added and the reaction mixture is incubated at room temperature. 10 μL acceptor beads, suspended in Epigenetic Buffer (Perkin Elmer AL008) from stock, are added and the suspension is incubated in the dark at room temperature, before a suspension of streptavidin donor beads (Perkin Elmer 6760002) in Epigenetic Buffer is added. After incubation at room temperature in the dark the plates are read. […]
# H3K4M3B: H-ART(Kme3)QTARKSTGGKAPRKQLA-NH-Biotin (Caslo, Denmark) […]
# (§3) Substrate Solution: Substrate, 25 μM L-Asc, and 10 μM α-KG in Buffer A.
# KDM2B (FBXL10) = target: T2, KDM2B (FBXL10) (Homo sapiens, UniProt Q8NHM5); test: Histone lysine demethylase AlphaLISA assay, KDM2B; type: biochemical; conditions: read-out: KDM2B HDME Inhibition IC50
# T2 sequence (Q8NHM5 1-650): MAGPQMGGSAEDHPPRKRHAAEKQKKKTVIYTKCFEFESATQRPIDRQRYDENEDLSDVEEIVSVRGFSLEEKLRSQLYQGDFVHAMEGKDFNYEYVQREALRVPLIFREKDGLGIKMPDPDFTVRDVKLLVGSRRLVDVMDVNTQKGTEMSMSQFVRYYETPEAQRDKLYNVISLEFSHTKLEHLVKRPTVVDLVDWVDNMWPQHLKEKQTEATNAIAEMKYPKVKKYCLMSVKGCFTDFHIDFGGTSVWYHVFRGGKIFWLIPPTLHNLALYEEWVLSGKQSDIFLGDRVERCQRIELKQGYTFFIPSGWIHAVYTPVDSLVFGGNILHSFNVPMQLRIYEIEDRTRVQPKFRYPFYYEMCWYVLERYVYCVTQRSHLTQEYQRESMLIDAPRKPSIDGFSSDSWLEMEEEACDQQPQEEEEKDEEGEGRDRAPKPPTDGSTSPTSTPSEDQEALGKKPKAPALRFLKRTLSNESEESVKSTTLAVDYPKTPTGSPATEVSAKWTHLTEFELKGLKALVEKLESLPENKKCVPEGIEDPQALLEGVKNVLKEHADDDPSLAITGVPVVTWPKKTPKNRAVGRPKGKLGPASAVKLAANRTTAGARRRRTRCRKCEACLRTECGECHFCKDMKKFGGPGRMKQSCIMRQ
# Method: as §1, §2
# BH3K36M2: RKAAPATGGVK(Me2)KPHRYRPGTVK-(BIOTIN)? (Anaspec)
# as §3
# KDM6A (UTX) = KDM6A (UTX) (Homo sapiens, UniProt O15550); test: Histone lysine demethylase AlphaLISA assay, KDM6A; type: biochemical; conditions: read-out: KDM6A HDME Inhibition IC50
# Sequence of KDM6A (UTX) (O15550 919-1401): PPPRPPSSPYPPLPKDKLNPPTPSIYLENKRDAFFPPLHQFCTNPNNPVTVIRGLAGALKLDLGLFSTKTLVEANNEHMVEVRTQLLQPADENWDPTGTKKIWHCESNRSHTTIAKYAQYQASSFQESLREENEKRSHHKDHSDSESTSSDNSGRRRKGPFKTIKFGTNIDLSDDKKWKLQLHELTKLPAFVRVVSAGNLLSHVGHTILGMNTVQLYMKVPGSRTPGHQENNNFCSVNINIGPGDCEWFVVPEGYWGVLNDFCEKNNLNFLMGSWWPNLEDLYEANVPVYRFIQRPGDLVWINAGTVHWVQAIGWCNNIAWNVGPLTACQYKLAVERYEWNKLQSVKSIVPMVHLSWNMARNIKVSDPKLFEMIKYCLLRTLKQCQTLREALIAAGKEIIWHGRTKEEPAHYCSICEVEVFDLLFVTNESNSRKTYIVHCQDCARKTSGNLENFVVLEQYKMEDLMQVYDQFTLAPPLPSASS
# Method: as §1, §2
# BK27M3: Biotin-ATKAAR(Kme3)SAPATGGVKKPHRY-NH2? (Caslo, Denmark) […]
# as §3
# KDM7 (PHF8) = target: T3, KDM7 (PHF8) (Homo sapiens, UniProt Q9UPP1); test: Histone lysine demethylase AlphaLISA assay, KDM7; type: biochemical; conditions: read-out: PHF8 HDME Inhibition IC50
# T3 construct: KDM7 (PHF8); BRIC; 1-1322; Bac
# T3 sequence (Q9UPP1 37-440 limits assumed): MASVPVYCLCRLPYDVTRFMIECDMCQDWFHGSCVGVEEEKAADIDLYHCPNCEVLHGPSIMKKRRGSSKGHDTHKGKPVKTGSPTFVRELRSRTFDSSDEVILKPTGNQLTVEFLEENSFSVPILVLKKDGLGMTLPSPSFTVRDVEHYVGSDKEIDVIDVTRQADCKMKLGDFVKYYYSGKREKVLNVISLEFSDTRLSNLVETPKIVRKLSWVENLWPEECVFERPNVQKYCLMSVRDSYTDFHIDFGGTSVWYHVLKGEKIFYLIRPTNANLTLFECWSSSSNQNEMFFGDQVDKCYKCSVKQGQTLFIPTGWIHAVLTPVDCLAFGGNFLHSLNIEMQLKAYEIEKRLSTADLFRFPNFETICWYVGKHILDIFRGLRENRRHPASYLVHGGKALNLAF
# Method: as §1, §2
# BK9M2: Biotin-ARTKQTAR(KMe2)STGGKAPRKQ-NH2 (AnaSpec 64359)
# BK9M1: Biotin-ARTKQTAR(KMe1)STGGKAPRKQ-NH2 (AnaSpec 64358) […]
# as §3
# KDM4C (JMJD2C) = target: T4, KDM4C (JMJD2C) (Homo sapiens, UniProt Q9H3R0); test: Histone lysine demethylase AlphaLISA assay, KDM4C; type: biochemical; conditions: read-out: KDM4C HDME Inhibition IC50
# T4 sequence (Q9H3R0 1-349): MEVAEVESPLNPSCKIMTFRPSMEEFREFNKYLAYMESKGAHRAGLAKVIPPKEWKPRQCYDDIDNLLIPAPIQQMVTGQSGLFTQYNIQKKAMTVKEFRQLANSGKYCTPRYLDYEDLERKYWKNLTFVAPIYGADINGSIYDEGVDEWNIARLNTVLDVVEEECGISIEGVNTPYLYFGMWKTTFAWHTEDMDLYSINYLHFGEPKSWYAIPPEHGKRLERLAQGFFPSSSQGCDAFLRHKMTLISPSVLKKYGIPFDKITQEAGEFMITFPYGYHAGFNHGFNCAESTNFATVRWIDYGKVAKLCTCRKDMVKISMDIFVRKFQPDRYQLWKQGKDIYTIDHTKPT
# Method: as §1
# Enzymes are dissolved in enzyme buffer and incubated for 10 min before being added to 3% DMSO solutions of compounds in enzyme buffer. Incubated for another 10 minutes, before substrate solution is added and the reaction mixture is incubated at room temperature. 10 μL acceptor beads, suspended in Epigenetic Buffer (Perkin Elmer AL008) from stock, are added and the suspension is incubated in the dark at room temperature, before a suspension of streptavidin donor beads (Perkin Elmer 6760002) in Epigenetic Buffer is added. After incubation at room temperature in the dark the plates are read.
# BK9M3: Biotin-ARTKQTAR(KMe3)STGGKAPRKQ-NH2 (Caslo, Denmark) […]
# as §3
# MCF7 cells = test: Cell proliferation assay MCF7; type: cell-based; conditions: MCF7 human breast cancer cells; 120 hours; ATPlite 1 Step
# Method: MCF7 cells were seeded in multi well plates at a density optimized to give approximately 90% confluent cells at the time of harvest. Cells were incubated for 24 hours before addition of compound. Compounds were diluted in complete medium and added to the plates in duplicates. The final concentration of DMSO was maximum 0.5%. Complete medium used was DMEM with GlutaMAX containing 10% FBS and pen/strep.
# 120 hours after addition of compounds, the plates were harvested and analyzed by ATPlite 1 Step (Perkin Elmer, cat no 6016739) according to the manufactures recommendation.
# H3K4me3 mark = test: Histone lysine demethylase immunofluorescence assay, non-transfected U2OS cells; type: cell-based; conditions: Homo sapiens, staining of the H3K4me3 mark, 20 hours incubation with compound
# Method: U2OS cells were harvested and seeded into multi well plates into media containing compound. The media used was DMEM containing 5% FBS and pen/strep. 20 hours after incubation of cells with compounds, the cells were washed once in PBS, harvested by fixation with formaldehyde 4% aqueous solution, and washed in PBS. Subsequently, the cells were permeabilized in PBS with 0.2% Triton X-100. Blocking was performed in PBS with 0.2% Triton X-100 and 5% FBS. The cells were incubated with αH3K4me3 primary antibody (Cell Signaling, #9751S) in blocking solution over night at 4° C. After incubation with primary antibody, the cells were washed with PBS, incubated with secondary antibody (Alexa fluor 594 goat anti rabbit IgG, Invitrogen, A11012) and Hoechst, (Sigma, 33342) in blocking solution, and washed again with PBS. Finally, PBS was added and high throughput imaging and analysis were performed by an IN Cell Analyzer 1000 (GE Healthcare). The IC50 values were based on an average measure of the staining of the H3K4me3 mark in cells.
IC50 (KDM5B (PLU-1)) [nM],IC50 (KDM2B (FBXL10)) [nM],IC50 (KDM6A (UTX)) [nM],IC50 (KDM7 (PHF8)) [nM],IC50 (KDM4C (JMJD2C)) [nM],EC50 (MCF7 cells) [nM],IC50 (H3K4me3 mark) [nM],Compound,Tumor Volume ([1]; day 15 after inoculation (start of dosing)) [mm^3],Tumor Volume ([1]; day 17 after inoculation) [mm^3],Tumor Volume ([1]; day 19 after inoculation) [mm^3],Tumor Volume ([1]; day 21 after inoculation) [mm^3],Tumor Volume ([1]; day 24 after inoculation) [mm^3],Tumor Volume ([1]; day 26 after inoculation) [mm^3],Tumor Volume ([1]; day 28 after inoculation) [mm^3],Tumor Volume ([1]; day 31 after inoculation) [mm^3]
,,,,,,,"Nc1cccc2c1CN(C1CCC(=O)NC1=O)C2=O (stereo not shown) [Lenolidomide, reference compound]",101 ± 12,156 ± 26,178 ± 36,266 ± 56,395 ± 92,509 ± 116,767 ± 169,1148 ± 175
< 250,> 2500,> 2500,> 2500,250 to 2500,< 250,< 250,"CCN(CCN(C)C)C(=O)CNCc1cc(/C=N/CC2(CO)CC2)ccn1 [Compound 88, N-[2-(dimethylamino)-ethyl]-N-ethyl-2-[({4-[({[1-(hydroxymethyl)cyclopropyl]methyl}imino)methyl]pyridin-2-yl}methyl)amino] acetamide]",,,,,,,,
< 250,> 2500,> 2500,> 2500,> 2500,250 to 2500,< 250,"CCN(CC)CCCCNCc1cc(CNC(=O)C(=O)O)ccn1 [Compound 27, ({[2-({[4-(diethylamino)-butyl]amino}methyl)pyridin-4-yl]methyl}carbamoyl)-formic acid]",,,,,,,,
